Data as given in paper PMC3853197 (PLoS ONE, 2013).
Read-outs that look alike come from different tables or passages of the source.

Columns and labels:
F. graminearum PH-1 = type: cell-based, Fusarium graminearum
[1] = system: F. graminearum conidia and hyphae; type: cell-based, Fusarium graminearum

Substance	IC100: amount of protein required to inhibit F. graminearum conidial germination completely (F. graminearum PH-1)	antifungal activity (F. graminearum PH-1; 96 µM)	antifungal activity compared with TMR-GMA4-C (F. graminearum PH-1; 16 h)	binding to the surface of fungal hyphae [1]	entry into fungal cells [1]	antifungal activity of labeled compared with untagged/unlabeled protein or peptide (F. graminearum PH-1)	antifungal activity (F. graminearum PH-1; 24 µM)
GRCRGFRRRCFCTTHC [GMA4-C]	< 6 µM	–	–	–	–	–	–
RTCENLADKYRGPCFSGCDTHCTTKENAVSGRCRDDFRCWCTKRC [MsDef1, reference compound]	>6 µM	–	–	–	–	–	–
TAM-GRCAAAARRCFCTTHC [TMR-GMA4-CM]	>96 µM	no antifungal activity	significantly lower antifungal activity	failed to bind	no indication of entry into fungal cells	–	–
TAM-GRCRGFRRRCFCTTHC [TMR-GMA4-C]	48 µM	–	–	–	entered the cytoplasm	considerably less antifungal activity	significant growth inhibition
